Measured values reported in patent US7070768B2, “Method for imparting artificial tan to human skin” (Allergan, Inc., priority 2003, dated 2006).

Key:
human skin = experiment: Oral bimatoprost tablets in a patient, skin color; format: in vivo; conditions: oral tablet, 2 x 100 mg per dose, 3 doses per day, four months
Source text: A patient began taking bimatoprost as a tablet.

eyelashes = conditions: Lumigan ophthalmic solution, applied in the FDA approved manner; cited from earlier work

For “cyclopentane N-ethyl heptanamide-5-cis-2-(3α-hydroxy-5-phenyl-1-trans-pentenyl)-3,5-dihydroxy, [bimatoprost, cyclopentane N-ethyl heptanamide-5-cis-2-(3α-hydroxy-5-phenyl-1-trans-pentenyl)-3,5-dihydroxy, [1α,2β,3α,5α]]”, the “skin color after treatment” value (human skin) is listed as “turned to a dark brown color” and the growth of eyelashes (eyelashes) is listed as “effective to increase the growth of eyelashes”.
